How the values were obtained:
E. coli O111B4 = experiment: Antibacterial experiment: supernatant of VD3-stimulated U-937 cells co-incubated with E. coli O111B4, colony count; assay type: cell-based; details: for CFU: U937 supernatant
Experimental: In this study, the final activated form of vitamin D, 1,25-dihydroxyvitamin D3 [1,25 (OH)2D3] was the test substance. The lymphoma U-937 cells of human tissue cell were used as experimental systems, the E. coli O111B4 was the antibacterial target. Cell supernatants treated by 1,25(OH)2D3 was co-incubated with E. coli O111B4. The E. coli O111B4 colony forming units (CFU) was used to examine whether 1,25(OH)2D3 achieved an antibacterial effect by stimulating cell lines derived from human to secrete antimicrobial peptides in vitro.
U-937 cells in the condition of exponential growth were centrifuged (1000 rpm, 5 min);
After centrifugation, the supernatant was discarded, and cell sediment was resuspended in an appropriate amount of RPMI1640 incomplete medium to make sure cells dispersed uniformly;
The cell suspension was counted by hemacytometer counting;
The concentration of cell suspension was adjusted to 1×10^5/mL using RPMI 1640 incomplete medium;
Each well of 6-well plate was inoculated with 3 mL cell suspension, the total number of cells per well was 3×10^5;
According to the label and the experimental design, 10 μL 200× test solution or vehicle of various concentrations with 0.5% (v/v) dose volume was added to each well.
Each dose was repeated in two parallel wells, one well harvested after 24 hours, and the other well harvested after 48 hours;
After administration, the 6-well plate was placed in 37° C., 5% CO2 incubator, cultured for 24 hours and 48 hours respectively.
Day 1 afternoon, a E. coli O111B4 glycerol pipe was thawed, 10 μL glycerol bacteria was inoculated in 10 mL of LB liquid medium without any antibiotic, and was cultured on oscillator at 37° C. overnight; Day 2 morning, 200 μL cultured broth (1:100 ratio) cultured overnight was transferred to 20 mL LB liquid medium without any antibiotics and was cultured on oscillator at 37° C. until OD600 was 0.6-1.0, then the next step was antibacterial experiment (Day 3); the remaining overnight cultured broth was stored in the refrigerator at 2-8° C. until needed.
Day 2 afternoon, 10 μL overnight cultured broth was inoculated in 10 mL LB medium without any antibiotics, and was cultured on oscillator at 37° C. overnight;
Day 3 morning, 200 μL overnight cultured broth (1:100 ratio) was transferred to 20 mL LB medium without any antibiotics, and was cultured on oscillator at 37° C. until OD600 was 0.6-1.0, then the next step was antibacterial experiment (Day 3).
Before the experiment started, 1.5% agar plate (lower medium) prepared beforehand was placed at room temperature for at least one hour;
Top agar medium (containing 0.8%/agar) was melted, and packaged. Each 1.6 mL of Top agar medium was packaged in each tube, and then the small tube was placed in 45° C. water bath to keep warm;
10 mL E. coli bacteria of OD600 0.6-1.0 was transferred into 50 mL centrifuge tubes to centrifuge (1000 rpm×5 min); After centrifugation, the supernatant was discarded, the bacteria precipitate was resuspended by adding 10 mL PBS; the above-described bacterial suspension was diluted 1×10^5 fold in PBS dilution by multiple proportion dilution (from 10-fold); After the drug action finished (24 hours or 48 hours), U-937 cells was centrifugated (1000 rpm, 5 min). After centrifugation, the supernatant was drawn back;
Each centrifuge tube previously added 50 μL diluted bacterial suspension (approximately 150-250 bacteria);
Bacterial suspension were added with 1.2 mL cell supernatant from each cell supernatant, and mixed;
The supernatant/bacterial mixture was placed on shaking table (200 rpm) at 37° C. and was incubated for 90 minutes. After incubation, the next step was plating;
Plating: 0.8 mL of cell supernatant/broth mixture was mixed with 1.6 mL top agar medium, the mixture was plated on 1.5% agar plates, 600 uL per well in triplicate.
Sterility test: 800 uL PBS and 1.6 mL top agar medium was mixed, and plated as above. […]

E. coli CFT073 [1] = experiment: Antibacterial experiment: VD3-stimulated 5637 bladder cells co-incubated with E. coli CFT073, CFU of cell lysate; assay type: cell-based; details: 5637 cells stimulated by VD3 at different concentrations, FIG. 3
Experimental: In this study, the final activated form of vitamin D, 1,25-dihydroxyvitamin D3 [1,25(OH)2D3] was the test substance, the human bladder cancer cells 5637 was used as experimental systems, the E. coli CFT073 was antibacterial target, cells treated by 1,25(OH)2D3 was co-incubated with E. coli CFT073. The E. coli CFT073 colony forming units (CFU) was used to examine whether 1,25(OH)2D3 achieved an antibacterial effect by stimulating cell lines derived from human to secrete antimicrobial peptides in vitro.
(§1) 5637 cells in the condition of exponential growth and about 90% confluence were digested by pancreatin (GIBCO, Cat. No. 25200-056) for 5 min. When most of the cells came off from the culture plate, complete medium was added to terminate digestion. The non-peeling cells were blown down from the culture plate by a pipette, and were transferred to a 15 ml centrifuge tube. The cells were centrifuged at 1500 rpm for three minutes. The supernatant was discarded. The cell deposit was resuspended in complete medium to ensure that the cells uniformly dispersed.
(§2) The cell suspension was counted by hemacytometer;
The concentration of cell suspension was adjusted to 4×10^5/mL using incomplete RPMI 1640 medium;
Each well of 6-well plate was inoculated with 2 mL cell suspension, the total number of cells per well was 8×10^5;
6-well plate was placed in an incubator under the condition of 37° C., 5% CO2. […]

E. coli CFT073 [2] = experiment: Antibacterial experiment: VD3-stimulated SV-HUC1 urethral epithelial cells co-incubated with E. coli CFT073, CFU of cell lysate; assay type: cell-based; details: SV-HUC1 cells stimulated by VD3 at different concentrations, FIG. 5
Experimental: In this study, with the final activated form of vitamin D3, 1,25-dihydroxyvitamin D3 [1,25 (OH)2D3] as the test substance, the immortalized human urethral epithelial cells SV-HUC1 as experimental systems, the E. coli CFT073 as antibacterial target, the cells treated by 1,25 (OH) 2D3 were co-incubated with E. coli CFT073. The E. coli CFT073 colony forming units (CFU) were used to examine whether 1,25 (OH) 2D3 achieves an antibacterial effect by stimulating cell lines derived from human to secrete antimicrobial peptides in vitro.
as §1, with “SV-HUC1” for “5637”, “dispersed uniformly.” for “uniformly dispersed.”
as §2
The concentration of cell suspension was adjusted to 4×10^5/mL using F12 incomplete medium;
Each well of 6-well plate was inoculated with 2 mL cell suspension, the total number of cells per well was 8×10^5; […]

LL-37 = experiment: ELISA of LL-37 in lysate of VD3-stimulated 5637 cells; assay type: cell-based, human; details: 5637 cells stimulated with VD3 at different concentrations, FIG. 4
Experimental: 3.2 ELISA Experiments about Effect of 1,25 (OH)2D3 on LL-37 Production 3.2.1 the Procedure of Inoculation (Day1), Administration (Day2), and E. coli infection bacteria solution preparation (Day 2&3) was the same as 3.1.1, 3.1.2 and 3.1.3.
Cell lysate was obtained using the method of 3.1.4. Cell debris and bacteria were removed by 13000 rpm centrifugation for 5 min. Lysate supernatant was fetched out and LL-37 was quantified by Human LL-37 ELISA Kit (Hycult, Cat. No. HK321).

CC1(C)S[C@@H]2[C@H](NC(=O)[C@H](N)c3ccccc3)C(=O)N2[C@H]1C(=O)O [antibiotic control group, ampicillin]
colonies produced (E. coli O111B4; antibiotics control experiment: PBS, broth, 2 uL ampicillin, top agar): no colonies produced

C=C1/C(=C\C=C2/CCC[C@]3(C)[C@@H]([C@H](C)CCCC(C)(C)O)CC[C@@H]23)C[C@@H](O)C[C@@H]1O [VD3, 1,25-dihydroxyvitamin D3]
antibacterial effect (relative CFU of 5637 cell lysate vs ethanol control) (E. coli CFT073 [1]): significant antibacterial effect | CFU (E. coli O111B4; High dose, VD3 10^−7M, Day 1, Serum 10%): 172 | CFU (E. coli O111B4; High dose, VD3 10^−7M, Day 2, Serum 1%): 112 | CFU (E. coli O111B4; High dose, VD3 10^−7M, Day 2, Serum 10%): 127 | CFU (E. coli O111B4; High dose, VD3 10^−7N, Day 1, Serum 1%): 108 | CFU (E. coli O111B4; Low Dose, VD3 10^−8M, Day 1, Serum 1%): 102 | CFU (E. coli O111B4; Low Dose, VD3 10^−8M, Day 1, Serum 10%): 112 | CFU (E. coli O111B4; Low Dose, VD3 10^−8M, Day 2, Serum 1%): 93 | CFU (E. coli O111B4; Low Dose, VD3 10^−8M, Day 2, Serum 10%): 97 | antibacterial effect of supernatant solution (E. coli O111B4; U937 cells stimulated by different concentrations of VD3): significant antibacterial effect | antibacterial activity of cell lysates (E. coli CFT073 [2]): significant antibacterial activity | LL-37 levels in cell lysates (LL-37): significant dose-dependent increase

Reference: patent US20160324876A1, “VITAMIN D AND ANTIBACTERIAL USES OF COMPOSITIONS THEREOF” (ZENSUN SCIENCE & TECHNOLOGY LIMITED, priority 2014, published 2016)
